This note sets out measurements from US20250250312A1, “BIFUNCTIONAL PEPTIDE WITH MU[…] VIRUS BINDING PROPERTIES” (priority 2022, published 2025).

In assay [1] the target is receptor binding domain (RBD) of SARS-CoV-2 (2019-nCoV) (Severe acute respiratory syndrome coronavirus 2, UniProt P0DTC2). Description: biochemical. As to conditions: Table 4, cysteines in reduced state, MST.
The target in assay [2] is receptor binding domain (RBD) of SARS-CoV-2 wildtype (2019-nCoV) (SARS-CoV-2), P0DTC2.

By Kd is commonly meant the concentration at which binding is half-saturated. Lower therefore signals higher affinity. Turning to `CC(C)C[C@H](NC(=O)[C@H](Cc1ccccc1)NC(=O)[C@@H](NC(=O)[C@H](CCCCN)NC(=O)[C@H](C)NC(=O)[C@H](CCC(N)=O)NC(=O)[C@H](CCC(=O)O)NC(=O)[C@@H](N)CCC(=O)O)[C@@H](C)O)C(=O)N[C@@H](CC(=O)O)C(=O)N[C@@H](CCCCN)C(=O)N[C@@H](Cc1ccccc1)C(=O)N[C@@H](CC(N)=O)C(=O)N[C@@H](Cc1c[nH]cn1)C(=O)N[C@@H](CCC(=O)O)C(=O)N[C@@H](C)C(=O)N[C@@H](CCC(=O)O)C(=O)N[C@@H](CC(=O)O)C(=O)N[C@@H](CS)C(=O)N[C@@H](Cc1ccccc1)C(=O)N[C@@H](Cc1ccc(O)cc1)C(=O)N[C@@H](CCC(N)=O)C(=O)N[C@@H](CS)C(=O)N[C@@H](CO)C(=O)O` [p4C18, 22], binding in assay [1] was put at a Kd of 0.218 µM. With EEQAKTFKDKFDHEAEDLFYQSSGLGKGDFR (modifications not checked) [p6(K)8(D)12], the Kd in assay [2] was 5 µM.
